The text below walks through data of patent publication US6403575B1, “3-Pyridyl enantiomers and their use as analgesics” (Abbott Laboratories, priority 1996, dated 2002).

The structures appear in SMILES notation. Where a name gives a salt, the structure may show the parent alone. Read-outs that look alike come from different tables or passages of the source.

The target of data set [1] is T1, peripheral ganglionic receptors (Homo sapiens, UniProt P30926+P32297).
T1 construct: Cells of the IMR-32 human neuroblastoma clonal cell line (ATCC, Rockville, Md.); host or cells: IMR-32 human neuroblastoma cells
Briefly: 86Rb+ flux activation in IMR-32 human neuroblastoma cells. The format is cell-based. The note with it: 1 μM compound, % of maximum response to (S)-nicotine. As for the experimental part: Protocol for the Determination of Ability of Nicotinic Acetylcholine Receptor Ligands to Activate Peripheral Ganglionic Receptors
Cells of the IMR-32 human neuroblastoma clonal cell line (ATCC, Rockville, Md.) were maintained in a log phase of growth according to established procedures. Experimental cells were seeded at a density of 500,000 cells/mL into a 24-well tissue culture dish. Plated cells were allowed to proliferate for at least 48 hours before loading with 2 μCi/mL of ^86Rb^+ (35 Ci/mmol) overnight at 37° C. The ^86Rb^+ efflux assays were performed according to previously published protocols (Lukas, R. J., J. Pharmacol. Exp. Ther., 265: 294-302, 1993) except serum-free Dulbecco's Modified Eagle's Medium was used during the ^86Rb^+ loading, rinsing, and agonist-induced efflux steps. Data reflect the activation of ^86Rb^+ flux at a concentration of 1 μM, and reflect the response as a percentage of the maximum response elicited by (S)-nicotine.

The next data set has as its system mice. Kind of data set: Mouse Hot Plate Paradigm. Format: in vivo. Set-up: key to MED Hot plate model (μmol/kg, i.p.): NS = no significant effect observed relative to saline controls at the doses tested. To be noted: 30 minutes prior to testing, 55° C.; for minimal effective dose: ip, 0.5 h, i.p., read-out: MED Hot plate model (μmol/kg, i.p.).
The target in data set [2] is T2, neuronal nicotinic acetylcholine receptors (Rattus norvegicus, UniProt P09483+P12390).
T2 construct: crude synaptic membrane preparations from whole rat brain; from tissue; host or cells: whole rat brain, crude synaptic membranes
Briefly: [3H]-cytisine binding to neuronal nicotinic acetylcholine receptors, whole rat brain membranes. As for the experimental part: Protocol for Determination of Nicotinic Acetylcholine Channel Receptor Binding Potencies of Ligands
Binding of [^3H]-cytisine ([^3H]-CYT) to neuronal nicotinic acetylcholine receptors was accomplished using crude synaptic membrane preparations from whole rat brain (Pabreza et al., Molecular Pharmacol., 1990, 39:9). Washed membranes were stored at −80° C. prior to use. Frozen aliquots were slowly thawed and resuspended in 20 volumes of buffer (containing: 120 mM NaCl, 5 mM KCl, 2 mM MgCl2, 2 mM CaCl2 and 50 mM Tris-Cl, pH 7.4 @4° C.). After centrifuging at 20,000×g for 15 minutes, the pellets were resuspended in 30 volumes of buffer. Homogenate (containing 125-150 μg protein) was added to triplicate tubes containing concentrations of test compound and [^3H]-CYT (1.25 nM) in a final volume of 500 μL. Samples were incubated for 60 minutes at 4° C., then rapidly filtered through Whatman GF/B filters presoaked in 0.5% polyethyleneimine using 3×4 mL of ice-cold buffer. The filters are counted in 4 mL of Ecolume® (ICN). Nonspecific binding was determined in the presence of 10 μM (−)-nicotine and values were expressed as a percentage of total binding.

Setting [3] is: [3H]-cytisine 1.25 nM, whole rat brain membranes, read-out: [3H] CYT Ki.

T2 sequence (P09483 31-630): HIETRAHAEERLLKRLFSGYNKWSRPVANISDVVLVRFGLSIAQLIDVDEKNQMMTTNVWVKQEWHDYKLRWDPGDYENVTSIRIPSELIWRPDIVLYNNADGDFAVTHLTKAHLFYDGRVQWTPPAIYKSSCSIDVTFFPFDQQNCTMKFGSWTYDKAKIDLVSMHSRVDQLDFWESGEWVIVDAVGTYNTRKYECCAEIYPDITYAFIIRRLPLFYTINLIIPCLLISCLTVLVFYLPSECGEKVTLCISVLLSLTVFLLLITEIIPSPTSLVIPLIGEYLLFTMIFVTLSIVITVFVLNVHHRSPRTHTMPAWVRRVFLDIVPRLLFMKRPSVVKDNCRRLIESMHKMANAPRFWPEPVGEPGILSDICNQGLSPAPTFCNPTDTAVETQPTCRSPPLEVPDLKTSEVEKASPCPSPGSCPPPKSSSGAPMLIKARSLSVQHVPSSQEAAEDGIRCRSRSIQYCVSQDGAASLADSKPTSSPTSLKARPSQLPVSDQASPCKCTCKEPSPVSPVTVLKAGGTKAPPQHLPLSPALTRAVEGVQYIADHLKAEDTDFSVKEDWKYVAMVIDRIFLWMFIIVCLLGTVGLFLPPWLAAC
T2 sequence (P12390 25-500): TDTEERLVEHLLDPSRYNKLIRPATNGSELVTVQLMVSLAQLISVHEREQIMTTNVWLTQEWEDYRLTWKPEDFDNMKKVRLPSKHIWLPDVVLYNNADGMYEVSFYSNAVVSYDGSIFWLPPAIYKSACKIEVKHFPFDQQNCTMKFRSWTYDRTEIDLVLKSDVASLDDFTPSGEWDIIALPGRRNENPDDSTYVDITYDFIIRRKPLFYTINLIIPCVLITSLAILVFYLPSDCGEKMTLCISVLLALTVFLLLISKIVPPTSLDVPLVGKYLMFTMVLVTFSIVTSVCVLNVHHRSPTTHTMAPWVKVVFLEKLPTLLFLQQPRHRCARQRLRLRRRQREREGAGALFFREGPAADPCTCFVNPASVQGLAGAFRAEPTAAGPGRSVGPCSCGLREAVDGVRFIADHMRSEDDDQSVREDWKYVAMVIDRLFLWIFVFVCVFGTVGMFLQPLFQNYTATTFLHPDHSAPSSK
T1 sequence (P32297 32-505): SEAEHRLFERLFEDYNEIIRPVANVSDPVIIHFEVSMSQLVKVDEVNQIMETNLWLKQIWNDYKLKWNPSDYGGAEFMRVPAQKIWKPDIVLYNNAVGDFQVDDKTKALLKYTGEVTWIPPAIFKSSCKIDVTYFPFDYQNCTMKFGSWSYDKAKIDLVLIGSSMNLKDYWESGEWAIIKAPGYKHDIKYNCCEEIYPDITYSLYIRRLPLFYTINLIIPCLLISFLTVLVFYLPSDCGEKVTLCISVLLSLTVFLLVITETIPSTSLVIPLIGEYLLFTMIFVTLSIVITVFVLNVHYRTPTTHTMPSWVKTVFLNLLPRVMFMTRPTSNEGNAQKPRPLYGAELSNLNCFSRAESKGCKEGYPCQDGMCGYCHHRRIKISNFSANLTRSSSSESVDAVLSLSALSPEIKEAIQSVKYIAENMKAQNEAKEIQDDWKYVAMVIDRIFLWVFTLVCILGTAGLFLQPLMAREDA
T1 sequence (P30926 22-498): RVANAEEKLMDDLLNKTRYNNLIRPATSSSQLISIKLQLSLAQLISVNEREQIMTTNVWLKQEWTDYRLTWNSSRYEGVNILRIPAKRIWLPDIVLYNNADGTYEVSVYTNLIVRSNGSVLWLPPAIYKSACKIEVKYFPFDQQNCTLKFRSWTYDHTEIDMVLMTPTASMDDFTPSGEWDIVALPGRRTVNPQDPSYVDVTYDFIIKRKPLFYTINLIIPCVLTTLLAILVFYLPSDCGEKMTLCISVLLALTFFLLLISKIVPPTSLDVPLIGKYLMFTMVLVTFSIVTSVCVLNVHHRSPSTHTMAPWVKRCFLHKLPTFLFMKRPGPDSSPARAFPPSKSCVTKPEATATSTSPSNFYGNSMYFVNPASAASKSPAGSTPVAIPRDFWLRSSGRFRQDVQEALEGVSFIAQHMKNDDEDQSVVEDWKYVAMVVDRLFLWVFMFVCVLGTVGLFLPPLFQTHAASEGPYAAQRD

Compound `Fc1ccc(OC[C@@H]2CCN2)c(F)n1` (as salt: tosylate) [Example 116, 2.6-Difluoro-3-(2-(S)-azetidinylmethoxy)pyridine tosylate] gave a melting point of 140 to 143 °C.

For `Fc1cncc(OC[C@H]2CCN2)c1` (as salt: salt) [Example 11, 5-((2R)-Azetidinylmethyloxy)-3-fluoropyridine dibenzoate], the melting point was in the range of 163 to 165 °C.

As to `CCCc1cncc(OC[C@@H]2CCN2)c1` (as salt: hydrochloride) [Example 24, 5-Propyl-3-((2S)-azetidinylmethyloxy)lpyridine hydrochloride], the melting point fell in the range of 79 to 80 °C.

`CCc1cc(OC[C@@H]2CCN2)cnc1Cl` (as salt: hydrochloride) [Example 27, 2-Chloro-3-ethyl-5-((2S)-azetidinylmethoxy)pyridine hydrochloride] showed a melting point of 102 to 104 °C.

`Cc1ccc(OC[C@H]2CCN2)cn1` (as salt: HCl) [Example 115, 6-Methyl-3-(2-(R)-azetidinylmethoxy)pyridine] registered a melting point of 134 to 136 °C.

For `CCCc1cc(OC[C@@H]2CCN2)cnc1Cl` (as salt: hydrochloride) [Example 28, 2-Chloro-3-propyl-5-((2S)-azetidinylmethoxy)pyridine hydrochloride], the melting point lay in the range of 148 to 150 °C.

Compound `C=Cc1cc(OC[C@@H]2CCN2)cnc1C` (as salt: hydrochloride) [Example 35, 6-Methyl-5-vinyl-3-((2S)-azetidinylmethoxy)pyridine hydrochloride] gave a melting point of 154 to 155 °C.

Compound `Clc1cc(OC[C@H]2CCN2)cnc1Cl` (as salt: hydrochloride) [Example 16, 5-((2R)-azetidinylmethoxy)-2,3-dichloropyridine hydrochloride] showed a melting point of 166 to 168 °C.

On to `Cc1cncc(OC[C@@H]2CCN2)c1` [Example 13, 5-Methyl-3-((2S)-Azetidinylmethyloxy)pyridine dibenzoate], for which the “IMR-32 % maximal nicotine response at 1 μM Cmpd conc'n” value in data set [1] is 27%. In addition, the “MED Hot plate model (μmol/kg, i.p.)” value in the data set with mice is reported as “NS”. Moreover, the inhibitory constant (Ki) in data set [2] (setting [3]) was 0.05 nM.

The compound `C=Cc1cncc(OC[C@@H]2CCN2)c1` (as salt: hydrochloride) [Example 22, 5-Vinyl-3-((2S)-Azetidinylmethyloxy)lpyridine dihydrochloride] came in with a melting point of 88 to 90 °C.

Regarding `Fc1ncc(OC[C@H]2CCN2)cc1Br` (as salt: tosylate) [Example 125, 5-bromo-6-fluoro-3-(2-(R)-azetidinylmethoxy)pyridine], the melting point is 238 to 240 °C.

Compound `Clc1cc(OC[C@@H]2CCN2)cnc1Cl` (as salt: hydrochloride) [Example 15, 5-((2S)-azetidinylmethoxy)-2,3-dichloropyridine hydrochloride] displayed a melting point of 181 to 182 °C.

For `Clc1ncc(OC[C@H]2CCN2)cc1Br` (as salt: hydrochloride) [Example 18, 5-((2R)-azetidinylmethoxy)-3-bromo-2-chloropyridine hydrochloride], the melting point amounted to 175 °C.

In the case of `C=Cc1cc(OC[C@@H]2CCN2)cnc1Cl` (as salt: hydrochloride) [Example 26, 2-Chloro-3-vinyl-5-((2S)-azetidinylmethoxy)pyridine hydrochloride], the melting point is 121 °C (dec.).

For the compound `C#Cc1cc(OC[C@@H]2CCN2)cnc1Cl` (as salt: hydrochloride) [Example 30, 2-Chloro-3-ethynyl-5-((2S)-azetidinylmethoxy)pyridine hydrochloride], the melting point is 90 °C (dec.).

Consider `CCc1cc(OC[C@@H]2CCN2)cnc1F` (as salt: tosylate) [Example 126, 5-ethyl-6-fluoro-3-(2-(S)-azetidinylmethoxy)pyridine], for which the melting point fell in the range of 106 to 108 °C.

`Fc1cncc(OC[C@@H]2CCN2)c1` (as salt: hydrochloride) [Example 10, 5-((2S)-Azetidinylmethyloxy)-3-fluoropyridine dihydrochloride]: the melting point fell in the range of 165 to 167 °C.

For `COc1ccc(OC[C@H]2CCN2)cn1` [Example 119, 6-Methoxy-3-(2(R)-azetidinylmethoxy)pyridine], the melting point was 139 to 142 °C. For the same compound, the inhibition constant (Ki) in data set [2] (setting [3]) came out at 0.67 nM.

Take `Cc1ccc(OC[C@@H]2CCN2)cn1` (as salt: hydrochloride) [Example 20, 5-((2S)-Azetidinylmethyloxy)-2-methylpyridine dihydrochloride]: the melting point is 141 to 144 °C.

The compound `Fc1ncc(OCC2CCN2)cc1Cl` (centres unmarked) (as salt: tosylate) [Example 33, 5-((29)-azetidinylmethoxy)-3-chloro-2-fluoropyridine tosylate] came in with a melting point of 99 °C.

With `Cc1cc(OC[C@@H]2CCN2)cnc1F` (as salt: salt) [Example 32, 5-((2S)-azetidinylmethoxy)-3-methyl-2-fluoropyridine benzoate], the melting point was in the range of 104 to 108 °C.

`Brc1cncc(OC[C@@H]2CCN2)c1` (as salt: hydrochloride) [Example 12, 5-((2S)-Azetidinylmethyloxy)-3-bromopyridine dihydrochloride] registered a melting point of 163 to 165 °C.

The compound `CCCCc1cc(OC[C@@H]2CCN2)cnc1Cl` (as salt: hydrochloride) [Example 29, 3-Butyl-2-chloro-5-((2S)-azetidinylmethoxy)pyridine hydrochloride] showed a melting point of 88 to 90 °C.

For the compound `C=Cc1cc(OC[C@@H]2CCN2)cnc1C` [Example 35, 6-Methyl-5-vinyl-3-((2S)-azetidinylmethoxy)pyridine hydrochloride], in the data set on mice, the “MED Hot plate model (μmol/kg, i.p.)” value is listed as “NS”. Moreover, in data set [2] (setting [3]), the Ki worked out at 0.22 nM.

Take `Cl.O=[N+]([O-])c1cncc(OC[C@@H]2CCN2)c1` [Example 132, 5-nitro-3-(2-(S)-azetidinylmethoxy)pyridine hydrochloride]: the melting point is 162 to 164 °C (dec.). In data set [2] (setting [3]), the inhibition constant Ki stood at 0.33 nM.

`CCc1cc(OC[C@@H]2CCN2)cnc1C` [Example 36, 6-Ethyl-6-methyl-3-((2S)-azetidinylmethoxy)pyridine hydrochloride]: the “MED Hot plate model (μmol/kg, i.p.)” value with mice is recorded as “NS”. For the same compound, the Ki in data set [2] (setting [3]) amounted to 0.04 nM.

For the compound `C=Cc1cc(OC[C@@H]2CCN2)cnc1Cl` [Example 26, 2-Chloro-3-vinyl-5-((2S)-azetidinylmethoxy)pyridine hydrochloride], the minimal effective dose in the data set on mice turned out to be 1.9 µmol/kg. The inhibition constant (Ki) in data set [2] (setting [3]) turned out to be 0.24 nM.

With `Cl.Cl.c1cncc(OC[C@H]2CCN2)c1` [Example 6, (R)-3-(2-Azetidinylmethyloxy)pyridine dihydrochloride], in the data set with mice, the “MED Hot plate model (μmol/kg, i.p.)” value was “NS”. Further, the inhibition constant (Ki) in data set [2] is 0.04 nM.

For the compound `CCCCc1cc(OC[C@@H]2CCN2)cnc1Cl` [Example 29, 3-Butyl-2-chloro-5-((2S)-azetidinylmethoxy)pyridine hydrochloride], the “MED Hot plate model (μmol/kg, i.p.)” value in the data set with mice was “NS”. Further, the inhibitory constant (Ki) in data set [2] (setting [3]) was 0.16 nM.

As for `CCc1cc(OC[C@@H]2CCN2)cnc1C` (as salt: hydrochloride) [Example 36, 6-Ethyl-6-methyl-3-((2S)-azetidinylmethoxy)pyridine hydrochloride], the melting point was 150 to 153 °C.

With `C#Cc1cc(OC[C@@H]2CCN2)cnc1Cl` [Example 30, 2-Chloro-3-ethynyl-5-((2S)-azetidinylmethoxy)pyridine hydrochloride], in the data set on mice, the minimal effective dose stood at 6.2 µmol/kg. Moreover, in data set [2] (setting [3]), the Ki came out at 0.04 nM.

On to `Clc1ncc(OC[C@@H]2CCN2)cc1Br` (as salt: hydrochloride) [Example 17, 5-((2S)-azetidinylmethoxy)-3-bromo-2-chloropyridine hydrochloride], for which the melting point fell in the range of 168 to 169 °C.

Consider `CCc1cc(OC[C@@H]2CCN2)cnc1Cl` [Example 27, 2-Chloro-3-ethyl-5-((2S)-azetidinylmethoxy)pyridine hydrochloride], for which, in the data set on mice, the “MED Hot plate model (μmol/kg, i.p.)” value is “NS”. For the same compound, the Ki in data set [2] (setting [3]) is 0.04 nM.

A word on the melting point: it is the temperature, or range, at which the solid turns liquid. A word on the Ki: it is a dissociation constant, usually derived from enzyme kinetics or from competition with a known ligand.
